From PubChem BioAssay (NCI)
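Grown in 96-well plates, cells were treated for 48 hours with each compound at five concentrations. Insufficient inhibition: endpoint recorded as highest concentration tested. GI50 marks 50% less growth. TGI: total growth inhibition.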

Legend:
Assay in all cases: DTP human tumour cell line panel, 48 h
A549 NSCLC = tested on: A549 NSCLC
HCC-2998 colon = tested on: HCC-2998 colon
HT29 colon = tested on: HT29 colon
MALME-3M melanoma = tested on: MALME-3M melanoma
RPMI-8226 leukemia = tested on: RPMI-8226 leukemia
RXF 393 renal = tested on: RXF 393 renal
SK-OV-3 ovarian = tested on: SK-OV-3 ovarian
EKVX NSCLC = tested on: EKVX NSCLC
OVCAR-8 ovarian = tested on: OVCAR-8 ovarian
SNB-19 CNS = tested on: SNB-19 CNS

O=C1[C@H]2ON(c3ccccc3)C(c3ccco3)[C@H]2C(=O)N1c1ccc(Cc2ccc(N3C(=O)[C@@H]4ON(c5ccccc5)C(c5ccco5)[C@@H]4C3=O)cc2)cc1 (some centres undefined)
TGI (A549 NSCLC): > 100 µM
TGI (HCC-2998 colon): > 100 µM
TGI (HT29 colon): > 100 µM
TGI (MALME-3M melanoma): > 100 µM
TGI (RPMI-8226 leukemia): > 100 µM
TGI (RXF 393 renal): > 100 µM
TGI (SK-OV-3 ovarian): > 100 µM

CN(C)C(=S)Nc1nnc(Nc2ccccc2)s1
TGI (A549 NSCLC): > 100 µM
TGI (EKVX NSCLC): > 100 µM
TGI (HCC-2998 colon): > 100 µM
TGI (HT29 colon): > 100 µM
TGI (MALME-3M melanoma): > 100 µM
TGI (OVCAR-8 ovarian): > 100 µM
TGI (RXF 393 renal): > 100 µM
TGI (SK-OV-3 ovarian): > 100 µM
TGI (SNB-19 CNS): > 100 µM

Cc1ccc(NC(=O)/C(Cc2nc3ccc([N+](=O)[O-])cc3[nH]c2=O)=N\NC(=O)C[n+]2ccccc2)c(C)c1
TGI (A549 NSCLC): > 100 µM
TGI (EKVX NSCLC): > 100 µM
TGI (HCC-2998 colon): > 100 µM
TGI (HT29 colon): > 100 µM
TGI (OVCAR-8 ovarian): 74 µM
TGI (RXF 393 renal): 73.1 µM
TGI (SK-OV-3 ovarian): 56.5 µM
TGI (SNB-19 CNS): > 100 µM

CC(C)(C)c1ccc(OC2CCO2)cc1 (centres undefined)
TGI (A549 NSCLC): > 100 µM
TGI (EKVX NSCLC): 90.1 µM
TGI (HCC-2998 colon): 94.1 µM
TGI (HT29 colon): 50.9 µM
TGI (MALME-3M melanoma): > 100 µM
TGI (OVCAR-8 ovarian): > 100 µM
TGI (RPMI-8226 leukemia): 47 µM
TGI (SK-OV-3 ovarian): > 100 µM
TGI (SNB-19 CNS): > 100 µM

CC1=NN(C(=O)c2ccncc2)C(=O)C1N=Nc1ccc(F)cc1 (centres undefined)
TGI (A549 NSCLC): > 100 µM
TGI (EKVX NSCLC): > 100 µM
TGI (HT29 colon): > 100 µM
TGI (MALME-3M melanoma): > 100 µM
TGI (OVCAR-8 ovarian): > 100 µM
TGI (RPMI-8226 leukemia): > 100 µM
TGI (RXF 393 renal): > 100 µM
TGI (SK-OV-3 ovarian): > 100 µM
TGI (SNB-19 CNS): > 100 µM

O=C1CNS(=O)(=O)N1
TGI (A549 NSCLC): > 100 µM
TGI (EKVX NSCLC): > 100 µM
TGI (HCC-2998 colon): > 100 µM
TGI (HT29 colon): > 100 µM
TGI (MALME-3M melanoma): > 100 µM
TGI (OVCAR-8 ovarian): > 100 µM
TGI (RPMI-8226 leukemia): > 100 µM
TGI (SK-OV-3 ovarian): > 100 µM
TGI (SNB-19 CNS): > 100 µM

Cc1cccc(C)c1N1C(=O)C(=O)C(c2nc3ccccc3s2)C(=Nc2cccc3c(=O)[nH][nH]c(=O)c23)C1=O (centres undefined)
TGI (A549 NSCLC): > 100 µM
TGI (EKVX NSCLC): > 100 µM
TGI (HCC-2998 colon): > 100 µM
TGI (HT29 colon): > 100 µM
TGI (MALME-3M melanoma): > 100 µM
TGI (OVCAR-8 ovarian): > 100 µM
TGI (RPMI-8226 leukemia): > 100 µM
TGI (SK-OV-3 ovarian): > 100 µM
TGI (SNB-19 CNS): > 100 µM

C=CCNC(=O)N(CCC)CCCC(NC(C)=O)C(=O)NCc1ccccc1 (centres undefined)
TGI (A549 NSCLC): > 100 µM
TGI (EKVX NSCLC): > 100 µM
TGI (HT29 colon): > 100 µM
TGI (MALME-3M melanoma): > 100 µM
TGI (OVCAR-8 ovarian): > 100 µM
TGI (RPMI-8226 leukemia): > 100 µM
TGI (RXF 393 renal): > 100 µM
TGI (SK-OV-3 ovarian): > 100 µM
TGI (SNB-19 CNS): > 100 µM

OCc1ccc(N2CCOCC2)cc1Cl
GI50 (A549 NSCLC): > 100 µM
TGI (A549 NSCLC): > 100 µM
GI50 (HCC-2998 colon): > 57.1 µM
TGI (HCC-2998 colon): > 100 µM
GI50 (HT29 colon): > 81.8 µM
TGI (HT29 colon): > 100 µM
GI50 (MALME-3M melanoma): > 100 µM
TGI (MALME-3M melanoma): > 100 µM
GI50 (OVCAR-8 ovarian): > 100 µM
TGI (OVCAR-8 ovarian): > 100 µM
GI50 (RPMI-8226 leukemia): > 84.4 µM
TGI (RPMI-8226 leukemia): > 100 µM
GI50 (RXF 393 renal): > 79.1 µM
TGI (RXF 393 renal): > 100 µM
GI50 (SK-OV-3 ovarian): > 100 µM
TGI (SK-OV-3 ovarian): > 100 µM
GI50 (SNB-19 CNS): > 100 µM
TGI (SNB-19 CNS): > 100 µM

CCCCCCCCCCCCCC[n+]1cccc(C(N)=O)c1
GI50 (A549 NSCLC): 4.08 µM
TGI (A549 NSCLC): 18.4 µM
GI50 (EKVX NSCLC): 1.97 µM
TGI (EKVX NSCLC): 6.08 µM
GI50 (HCC-2998 colon): 2.2 µM
GI50 (HT29 colon): 0.778 µM
TGI (HT29 colon): 4.63 µM
GI50 (MALME-3M melanoma): 1.75 µM
TGI (MALME-3M melanoma): 4.21 µM
GI50 (OVCAR-8 ovarian): 2.12 µM
TGI (OVCAR-8 ovarian): 6.22 µM
GI50 (RPMI-8226 leukemia): 1.87 µM
TGI (RPMI-8226 leukemia): 4.44 µM
GI50 (SK-OV-3 ovarian): 1.9 µM
TGI (SK-OV-3 ovarian): 8.13 µM
GI50 (SNB-19 CNS): 1.01 µM
TGI (SNB-19 CNS): 2.4 µM
